Measurements: patent US20210308089A1, “METHODS OF TREATING AND/OR PREVENTING VIRAL INFECTIONS AND/OR DISEASES CAUSED BY VIRUSES IN A SUBJECT IN NEED THEREOF” (priority 2020, published 2021)

System: patients of the REDUCE-IT and earlier EPA placebo-controlled trials
Experiment: Example 3: adverse events by risk ratio, icosapent ethyl vs placebo (candidate categories; infectious disease terms of interest)
Conditions: R-I

CC/C=C\C/C=C\C/C=C\C/C=C\C/C=C\CCCC(=O)OCC [icosapent ethyl, eicosapentaenoic acid ethyl ester]
AR: Bipolar Disease (AE table): 0.0%
AR: Blood CPK increased (AE table): 1.6%
AR: Blood glucose increased (AE table): 0.2%
AR: Bone Fractures (AE table): 0.0%
AR: Bronchiectasis (AE table): 0.1%
AR: Bronchitis chronic (AE table): 0.2%
AR: CKD (AE table): 1.3%
AR: COPD (AE table): 2.7%
AR: Carotid bruit (AE table): 0.4%
AR: Cholestasis (AE table): 0.0%
AR: Chrohn's Disease (AE table): 0.0%
AR: Cognitive Decline: Attention disorders and disturbances (AE table): 0.0%
AR: Cognitive Decline: Cognitive and attention disorders and disturbances (AE table): 0.0%
AR: Cough (AE table): 5.9%
AR: Decreased Appetite (AE table): 0.5%
AR: Deep Venous Thromboembolism (AE table): 0.2%
AR: Depression: Depressed mood disorders and disturbances (AE table): 2.9%
AR: Depression: Depressive disorders (AE table): 2.8%
AR: Depression: Depressive disorders - Agitated depression (AE table): 0.0%
AR: Depression: Depressive disorders - Depression (AE table): 2.6%
AR: Depression: Depressive disorders - Major depression (AE table): 0.0%
AR: Depression: Depressive disorders - Persistent depressive disorder (AE table): 0.0%
AR: Depression: Mood alterations - Depressed mood (AE table): 0.1%
AR: Depression: Mood alterations - Depressive symptom (AE table): 0.0%
AR: Depression: Mood alterations with depressive symptoms (AE table): 0.2%
AR: Dermatitis psoriasiform (AE table): 0.0%
AR: Dermatitis, allergic (AE table): 0.2%
AR: Diabetic Nephropathy (AE table): 0.3%
AR: ESRD (AE table): 0.1%
AR: Ear infection (AE table): 0.9%
AR: Embolism and Thrombosis (AE table): 1.2%
AR: Emphysema (AE table): 0.4%
AR: Epilepsy (AE table): 0.0%
AR: Erectile dysfunction (AE table): 1.8%
AR: Furuncle (AE table): 0.2%
AR: Gastroenteritis, viral (AE table): 1.1%
AR: Gastroesophageal reflux (AE table): 0.1%
AR: Gingivitis (AE table): 0.2%
AR: Glomerulonephritis and Nephrotic Syndrome (AE table): 0.0%
AR: Guttate psoriasis (AE table): 0.0%
AR: Helicobacter infection (AE table): 0.2%
AR: Hepatitis C (AE table): 0.0%
AR: Herpes Zoster (AE table): 1.8%
AR: Herpes simplex (AE table): 0.2%
AR: Hyperglycemia (AE table): 2.0%
AR: Hyperkalemia (AE table): 1.1%
AR: Hypertension (AE table): 8.1%
AR: Hypertensive Crisis (AE Table): 0.9%
AR: Hypokalemia (AE table): 2.0%
AR: Hypomagnesemia (AE table): 0.9%
AR: Infected bite (AE table): 0.1%
AR: Influenza (AE table): 6.5%
AR: Influenza like illness (AE table): 0.6%
AR: Jaundice cholestatic (AE table): 0.0%
AR: Large intestine polyps (AE table): 0.2%
AR: Limb Fractures and Dislocations (AE table): 0.8%
AR: Lupus (AE table): 0.0%
AR: Microalbuminuria (AE table): 0.2%
AR: Migraine (AE table): 0.2%
AR: Mucosal inflammation (AE table): 0.1%
AR: Multiple Sclerosis (AE table): 0.0%
AR: Muscle spasms (AE table): 2.0%
AR: NASH (AE table): 0.1%
AR: NASH for b/l NFS >0.675 (AE table): 0.3%
AR: NASH+Hepatic Steatosis for NFS >0.675 (AE table): 1,6%
AR: Nasopharyngitis, Mild Severity (AE table): 7.7%
AR: Nephrolithiasis (AE table): 2.0%
AR: Nephropathies (AE table): 0.6%
AR: Nephrotic Syndrome (AE table): 0.0%
AR: Orthopnea (AE table): 0.1%
AR: PTSD (AE table): 0.1%
AR: Pancytopenia (AE table): 0.2%
AR: Pneumonia (AE table): 6.6%
AR: Proteinuria (AE table): 0.5%
AR: Psoriasis (AE table): 0.5%
AR: Psoriatic Conditions (AE table): 0.6%
AR: Psychosis: Psychotic disorder NEC (AE table): 0.0%
AR: Pulmonary Edema (AE table): 0.3%
AR: Respiratory Failure (AE table): 0.5%
AR: Respiratory tract infection (AE table): 1,2%
AR: Rheumatoid Arthritis (AE table): 0.0%
AR: Rhinitis (AE table): 0.5%
AR: Schizophrenia NEC (AE table): 0.0%
AR: Sepsis (AE table): 0.9%
AR: Severe chronic obstructive pulmonary disease (AE table): 0.5%
AR: Severe dermatitis, allergic (AE table): 0.1%
AR: Severe gastroenteritis (AE table): 0.2%
AR: Severe sepsis (AE table): 0.6%
AR: Severe systemic inflammatory response syndrome (AE table): 0.1%
AR: Severe urinary tract infection (AE table): 0.4%
AR: Systemic inflammatory response syndrome (AE table): 0.1%
AR: Tooth infection (AE table): 0.6%
AR: Ulcerative Colitis (AE table): 0.0%
AR: Upper respiratory tract infection (AE table): 7.7%
AR: Vascular hypertensive disorder (AE table): 9.0%
AR: Viral infection (AE table): 0.5%
AR: Vulvovaginal mycotic infection (AE table): 0.2%
AR: Wheezing (AE table): 0.7%
ARR: ADHD (AE table): 0.0%
ARR: Allergic sinusitis (AE table): −0.0%
ARR: Alzheimer's Disease (AE table): 0.0%
ARR: Asthma (AE table): 0.1%
ARR: Atelectasis (AE table): −0.3%
ARR: Bipolar Disease (AE table): −0.0%
ARR: Blood CPK increased (AE table): −0.6%
ARR: Blood glucose increased (AE table): −0.1%
ARR: Bone Fractures (AE table): 0.0%
ARR: Bronchiectasis (AE table): −0.1%
ARR: Bronchitis chronic (AE table): −0.1%
ARR: CKD (AE table): 0.1%
ARR: COPD (AE table): 0.2%
ARR: Carotid bruit (AE table): −0.3%
ARR: Cholestasis (AE table): 0.0%
ARR: Chrohn's Disease (AE table): −0.0%
ARR: Cognitive Decline: Attention disorders and disturbances (AE table): 0.0%
ARR: Cognitive Decline: Cognitive and attention disorders and disturbances (AE table): 0.0%
ARR: Cough (AE table): 0.0%
ARR: Decreased Appetite (AE table): 0.5%
ARR: Deep Venous Thromboembolism (AE table): −0.1%
ARR: Depression: Depressed mood disorders and disturbances (AE table): 0.3%
ARR: Depression: Depressive disorders (AE table): 0.3%
ARR: Depression: Depressive disorders - Agitated depression (AE table): 0.0%
ARR: Depression: Depressive disorders - Depression (AE table): 0.2%
ARR: Depression: Depressive disorders - Major depression (AE table): 0.0%
ARR: Depression: Depressive disorders - Persistent depressive disorder (AE table): 0.0%
ARR: Depression: Mood alterations - Depressed mood (AE table): 0.0%
ARR: Depression: Mood alterations - Depressive symptom (AE table): −0.0%
ARR: Depression: Mood alterations with depressive symptoms (AE table): −0.0%
ARR: Dermatitis psoriasiform (AE table): 0.0%
ARR: Dermatitis, allergic (AE table): −0.2%
ARR: Diabetic Nephropathy (AE table): −0.0%
ARR: ESRD (AE table): −0.0%
ARR: Ear infection (AE table): −0.2%
ARR: Embolism and Thrombosis (AE table): 0.1%
ARR: Emphysema (AE table): −0.2%
ARR: Epilepsy (AE table): 0.0%
ARR: Erectile dysfunction (AE table): −0.4%
ARR: Furuncle (AE table): −0.1%
ARR: Gastroenteritis, viral (AE table): −0.3%
ARR: Gastroesophageal reflux (AE table): −0.1%
ARR: Gingivitis (AE table): −0.1%
ARR: Glomerulonephritis and Nephrotic Syndrome (AE table): −0.1%
ARR: Guttate psoriasis (AE table): 0.0%
ARR: Helicobacter infection (AE table): −0.1%
ARR: Hepatitis C (AE table): 0.0%
ARR: Herpes Zoster (AE table): −0.1%
ARR: Herpes simplex (AE table): −0.1%
ARR: Hyperglycemia (AE table): −0.5%
ARR: Hyperkalemia (AE table): −0.6%
ARR: Hypertension (AE table): −0.6%
ARR: Hypertensive Crisis (AE Table): −0.3%
ARR: Hypokalemia (AE table): 0.1%
ARR: Hypomagnesemia (AE table): −0.3%
ARR: Infected bite (AE table): −0.0%
ARR: Influenza (AE table): −0.2%
ARR: Influenza like illness (AE table): −0.1%
ARR: Jaundice cholestatic (AE table): 0.1%
ARR: Large intestine polyps (AE table): −0.2%
ARR: Limb Fractures and Dislocations (AE table): −0.1%
ARR: Lupus (AE table): −0.0%
ARR: Microalbuminuria (AE table): −0.3%
ARR: Migraine (AE table): 0.2%
ARR: Mucosal inflammation (AE table): −0.0%
ARR: Multiple Sclerosis (AE table): −0.0%
ARR: Muscle spasms (AE table): −1.1%
ARR: NASH (AE table): −0.1%
ARR: NASH for b/l NFS >0.675 (AE table): −0.4%
ARR: NASH+Hepatic Steatosis for NFS >0.675 (AE table): −0.5%
ARR: Nasopharyngitis, Mild Severity (AE table): −0.2%
ARR: Nephrolithiasis (AE table): 0.1%
ARR: Nephropathies (AE table): −0.2%
ARR: Nephrotic Syndrome (AE table): −0.0%
ARR: Orthopnea (AE table): −0.1%
ARR: PTSD (AE table): −0.0%
ARR: Pancytopenia (AE table): −0.1%
ARR: Pneumonia (AE table): −0.3%
ARR: Proteinuria (AE table): −0.2%
ARR: Psoriasis (AE table): 0.3%
ARR: Psoriatic Conditions (AE table): 0.3%
ARR: Psychosis: Psychotic disorder NEC (AE table): −0.0%
ARR: Pulmonary Edema (AE table): −0.2%
ARR: Respiratory Failure (AE table): −0.0%
ARR: Respiratory tract infection (AE table): −0.1%
ARR: Rheumatoid Arthritis (AE table): −0.1%
ARR: Rhinitis (AE table): −0.1%
ARR: Schizophrenia NEC (AE table): −0.0%
ARR: Sepsis (AE table): −0.2%
ARR: Severe chronic obstructive pulmonary disease (AE table): −0.1%
ARR: Severe dermatitis, allergic (AE table): −0.1%
ARR: Severe gastroenteritis (AE table): −0.1%
ARR: Severe sepsis (AE table): −0.2%
ARR: Severe systemic inflammatory response syndrome (AE table): −0.1%
ARR: Severe urinary tract infection (AE table): −0.2%
ARR: Systemic inflammatory response syndrome (AE table): −0.1%
ARR: Tooth infection (AE table): −0.2%
ARR: Ulcerative Colitis (AE table): −0.0%
ARR: Upper respiratory tract infection (AE table): −0.2%
ARR: Vascular hypertensive disorder (AE table): −0.8%
ARR: Vulvovaginal mycotic infection (AE table): −0.1%
ARR: Wheezing (AE table): −0.3%
NNT: ADHD (AE table): −8362005
NNT: Allergic sinusitis (AE table): 2046
NNT: Alzheimer's Disease (AE table): −3344802
NNT: Asthma (AE table): −1019
NNT: Atelectasis (AE table): 372
NNT: Bipolar Disease (AE table): 2045
NNT: Blood CPK increased (AE table): 164
NNT: Blood glucose increased (AE table): 682
NNT: Bone Fractures (AE table): −4088
NNT: Bronchiectasis (AE table): 1364
NNT: Bronchitis chronic (AE table): 1023
NNT: CKD (AE table): −680
NNT: COPD (AE table): −453
